Patent US10966962B2, “Method for treating neurodegenerative diseases” (THE BOARD OF TRUSTEES OF THE LELAND STANFORD JUNIOR …, priority 2014, dated 2021)

Key:
[1] = system: CD115+CD11b+ blood monocytes; assay: Blood monocyte frequency in 5XFAD AD transgenic animals; type: in vivo, mice; conditions: 25 mg/kg orally 3 times a week for 4 weeks, 7 weeks of age
Procedure: AD transgenic animals were orally treated 3 times a week for 4 weeks with 0.5% methylcellulose or ZLN005 (Sigma) at 25 mg/kg in 0.5% methylcellulose, starting at 3 weeks of age. For measuring the frequency of CD115+CD11b+ blood monocytes, 5[…]=5), 5XFAD-Ctrl (n=4), and WT animals (n=4) were sacrificed at 7 weeks of age. The results are summarized in FIG. 14; Y-axis represents % of total circulating monocytes among circulating immune cells. […] ANOVA was used for statistical analysis.

[2] = system: Ppargc1a
Procedure: To induce symptoms of PD, MPTP (20 mg/kg) was administered intraperitoneally in sterile PBS 4 times at 2-hour intervals on day 1. […] Log-rank test was used for statistical analysis.
Ppargc1a, an inducer of mitochondrial biogenesis, is widely expressed in cells throughout the body.
For protein expression studies, animals were sacrificed on Day 4, 24 hours after the 3rd oral dosage of ZLN005 and PBS-perfused brain tissues were digested with Collagenase IV, processed for microglia isolation by flow cytometry (Ginhoux et al Science, 330:841-5, 2010), and immunoblot analysis of Ppargc1a expression.

[3] = system: CD45hi CD11b+F4/80+brain perivascular macrophages; assay: Frequency of brain perivascular macrophages in ALS transgenic animals; type: in vivo, mice; conditions: 25 mg/kg orally 3 times a week for 8 weeks, 13 weeks of age
Procedure: ALS transgenic animals were orally treated 3 times a week for 8 weeks with 0.5% methylcellulose or ZLN005 (Sigma) at 25 mg/kg in 0.5% methylcellulose, starting at 5 weeks of age. For measuring the frequency of CD45hi CD11b+F4/80+brain perivascular macrophages, ALS-Ctrl (n=13), ALS-ZLN (n=17), and WT animals (n=17) were sacrificed at 13 weeks of age. PBS-perfused brain tissues of sacrificed animals were digested with Collagenase IV and processed for flow cytometry. The results are summarized in FIG. 19; Y-axis represents % of brain perivascular macrophages among total brain immune cells in the brain. […] ANOVA was used for statistical analysis.

[4] = system: microglia; assay: Microglia metabolic phenotype in 5XFAD AD transgenic animals (MitotrackerGreen, 2-NBDG); type: in vivo, mice; conditions: 25 mg/kg orally 3 times a week for 4 weeks, 7 weeks of age
Procedure: AD transgenic animals were orally treated 3 times a week for 4 weeks with 0.5% methylcellulose or ZLN005 (Sigma) at 25 mg/kg in 0.5% methylcellulose, starting at 3 weeks of age. For studies of microglia, 5[…]=10) and 5XFAD-Ctrl (n=8) animals and WT animals (n=11) were sacrificed at 7 weeks of age. PBS-perfused brain tissues of sacrificed animals were digested with Collagenase IV and processed for flow cytometry. Brain microglia were phenotyped with 2-NBDG and MitotrackerGreen (Invitrogen) for flow cytometric acquisition (LSRII, BD) and analysis (FlowJo). The results are summarized in FIG. 13; Y-axis represents % of microglia that highly expressed MitotrackerGreen (A) and had taken up 2-NBDG (B). Mitochondrial respiration and glycolysis are two key energy generating pathways in living cells. In immune cells like microglia, inflammatory transformation is associated with upregulation of glucose utilization and depression of mitochondrial biogenesis and function. […] ANOVA was used for statistical analyses.

[5] = system: brains of STZ-treated-animals; assay: Gene expression in brain in acute STZ model of AD; type: in vivo, mice; conditions: 25 mg/kg orally daily until Day 4
Procedure: To induce symptoms of AD, STZ (3 mg/kg, Sigma) was administered via intracerebral injection ([…] et al, Int J Neurosci, PMID 24494726, 2014). This is a well-established model of the sporadic form of AD. Briefly, animals were anesthetized and STZ solution in 5 μl artificial cerebrospinal fluid (Harvard Apparatus) was injected through the skull with a 50 μl syringe. Control animals received a similar volume of artificial cerebrospinal fluid without STZ. The injections were performed twice, on Day 1 and Day 3. […] Treatment with ZLN005 was continued on a daily schedule until Day 4.

[6] = system: dopaminergic neurons in the substantia nigra; assay: Immunohistochemical analysis of dopaminergic neurons in MPTP-treated animals; type: in vivo, mice; conditions: 25 mg/kg orally once a day for 7 days, Day 8
Procedure: For protein expression studies, animals were sacrificed on Day 8, 24 hours after the 7th oral dosage of ZLN005, and paraformaldehyde-perfused brain tissues were processed for immunohistochemical analysis of dopaminergic neurons in the substantia nigra. The brown staining represents tyrosine hydroxylase expression in dopaminergic neurons of the substantia nigra.

[7] = system: microglia; assay: Ex vivo TNF-α production by microglia from MPTP-treated FF and Cre animals; type: in vivo, mice; conditions: 2-hour ex vivo assay, Day 4
Procedure: Animals with microglia-specific deletion of Ppargc1a were generated by crossing mice harboring the foxed allele of Ppargc1a (Ppargc1a^LoxP/LoxP) with those expressing Tamoxifen inducible Cre recombinase under the control of Cx3cr1 promoter (Cx3cr1^CreER). To induce Cre-mediated deletion of Ppargc1a in Cx3cr1 expressing cells, Tamoxifen (Sigma) in 200 μl corn oil (50 mg/ml, Sigma) was administered to 3 weeks old (Ppargc1a^LoxP/LoxPCx3cr1^CreER) mice twice at 48-hour intervals (Wolf et al Front Cell Neurosci 2013, 18;7:26. doi: 10.3389/fnce1.2013.00026). Littermates carrying the foxed allele of Ppargc1a alleles but lacking expression of Cre recombinase (Ppargc1a^LoxP/LoxP) were used as controls. Animals were rested for another 5-6 weeks before MPTP was administered. Animals with microglia-specific deletion of Ppargc1a and controls were generated as described in Example 1. […] PBS-perfused brain tissues of sacrificed animals were digested with Collagenase IV and isolated by flow cytometry. For measuring microglial production of TNF-α, MPTP-ZLN (n=5), MPTP-Ctrl (n=10) and Veh (n=6) animals were sacrificed. Isolated microglia were subjected to a 2-hour ex vivo TNF-α production assay. Supernatant samples were collected for TNF-α measurement with CBA technology (BD). […] Unpaired t-tests were used for statistical analyses.

[8] = system: ALS transgenic mice; assay: Wheel-running test in ALS transgenic animals; type: in vivo; conditions: 25 mg/kg orally 3 times a week for 4 weeks from 9 weeks of age
Procedure: ALS transgenic mice were orally treated 3 times a week for 4 weeks with 0.5% methylcellulose or ZLN005 (Sigma) at 25 mg/kg in 0.5% methylcellulose, starting at 9 weeks of age. A wheel-running test was performed similarly to that described in Example 8. The animals started training at 13 weeks of age for 1.5 weeks of training on a treadmill at a constant speed of 10 rpm and then for 1.5 weeks of training at an accelerating speed from 5-15 rpm. After the training period at 14.5 and 16 weeks of age, animals were tested for motor performance at a constant speed and at an accelerating speed, respectively. […] Unpaired t-tests were used for statistical analyses.

## CC(C)(C)c1ccc(-c2nc3ccccc3[nH]2)cc1 [ZLN005, 2-(4-tert-butylphenyl)-1H-benzimidazole]
[1]
  percentage of monocytes among circulating immune cells: decreased
[2]; MPTP-treated animals, 25 mg/kg orally, 3 doses, Day 4
  Ppargc1a protein expression in microglia: enhanced Ppargc1a protein expression in microglia
[2]; mouse, in vivo, po, 25 mg/kg
  blood-brain barrier penetration: penetrated the blood-brain barrier
[3]
  percentage of brain perivascular macrophages among total brain immune cells: decreased
[4]
  glucose uptake in microglia (2-NBDG): decreased
  mitochondrial mass in microglia (Mitotracker Green): enhanced
[5]
  expression of genes involved in Ppargc1a signaling and antioxidant defense (Tfam, Cytc) in the brain: increased expression
  expression of genes involved in β-amyloid generation (App and Psen1) in the brain: decreased the expression
[6]
  depletion of dopaminergic neurons of the substantia nigra (tyrosine hydroxylase staining): reversed
[7]; MPTP-treated Cre animals (microglial Ppargc1a deletion)
  TNF-α production in microglia: failed to exert its anti-inflammatory effects
[7]; MPTP-treated FF animals
  TNF-α production in microglia: suppressed TNF-α production
[8]; accelerating speed 5-15 rpm, 16 weeks of age
  latency to fall: 243.7 s
[8]; constant speed 10 rpm, 14.5 weeks of age
  latency to fall: 296.3 s
